Target: CDK4/cyclinD (Homo sapiens (Human), UniProt P11802)
Assay: CDK4/CyclinD kinase enzymatic assay (Caliper LabChip)
Format: biochemical
Details: tested as HCl salts, 12-point dose response, at the Km for ATP, three hours
Method: Kinase enzymatic reactions were performed in 384-well microplates using a 12-channel Caliper LabChip instrument as a detection device. […] As substrate and product are separated, two peaks of fluorescence are observed. Change in the relative fluorescence intensity of the substrate and product peaks is the parameter measured, reflecting enzyme activity. In the presence of an inhibitor, the ratio between product and substrate is altered. The signal of the product decreases, while the signal of the substrate increases.
Potential inhibitor compounds (as HCl salts) were tested using 12-point dose response curves in […] at the Km for ATP. The IC50 of each compound was determined using GraphPad Prism.

CDK4/cyclinD, sequence (P11802 whole entry, species assumed): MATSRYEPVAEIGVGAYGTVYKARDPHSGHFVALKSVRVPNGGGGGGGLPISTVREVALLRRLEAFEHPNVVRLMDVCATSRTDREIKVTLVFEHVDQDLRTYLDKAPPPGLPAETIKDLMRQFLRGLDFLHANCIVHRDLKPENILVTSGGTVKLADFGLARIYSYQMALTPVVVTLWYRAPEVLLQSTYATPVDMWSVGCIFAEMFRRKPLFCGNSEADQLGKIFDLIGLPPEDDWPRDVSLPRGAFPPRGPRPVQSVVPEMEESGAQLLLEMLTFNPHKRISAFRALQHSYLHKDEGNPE
CDK4/cyclinD, sequence (P24385 whole entry partner, species assumed): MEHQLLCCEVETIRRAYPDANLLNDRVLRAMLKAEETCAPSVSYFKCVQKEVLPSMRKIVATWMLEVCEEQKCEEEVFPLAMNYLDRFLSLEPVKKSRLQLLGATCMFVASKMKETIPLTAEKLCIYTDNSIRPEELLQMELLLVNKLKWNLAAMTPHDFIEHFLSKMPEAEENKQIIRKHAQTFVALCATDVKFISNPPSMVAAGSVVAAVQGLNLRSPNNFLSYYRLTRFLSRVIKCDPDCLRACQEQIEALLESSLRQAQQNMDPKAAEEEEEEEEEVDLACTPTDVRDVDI

O=C1NCCn2c1cc1cnc(Nc3ccc(N4CCNCC4)cn3)nc12 [Compound 3]
IC50: 1.05 µM

From US10696682B2, “CDK inhibitors” (G1 Therapeutics, Inc., priority 2010, dated 2020)
